Results on 1 compound are retold here after patent US7312236B2, “Substituted (4-aminocyclohexen-1-yl)phenyl and (4-aminocyclohexen-1-yl)pyridinyl compounds as 5-HT1F agonists” (Eli Lilly and Company, priority 2004, dated 2007).

Experiment [1] concerns dural protein extravasation. As to the kind of experiment: Dural protein extravasation assay (trigeminal ganglion stimulation). Further details: species or system rats or guinea pigs. The following applies: in vivo. The protocol:
The inhibition of dural protein extravasation is a functional assay for the neuronal mechanism of migraine. A compound's ability to inhibit dural protein extravasation can be tested as described in the following assay.
Anesthetize Harlan Sprague-Dawley rats (225-325 g) or guinea pigs from Charles River Laboratories (225-325 g) with sodium pentobarbital (intraperitoneal injection, 65 mg/kg or 45 mg/kg, respectively). For each animal, place the animal in a stereotaxic frame (David Kopf Instruments) with the incisor bar set at −3.5 mm for rats or −4.0 mm for guinea pigs. […]
Quantify the amount of Evans Blue dye in each sample using a fluorescence microscope (Zeiss) equipped with a grating monochronomator, a spectrophotometer, a computer-driven motorized stage, and an interface to a personal computer. For each dural membrane sample, measure fluorescence at 25 points (500 μm steps covering a 2.5×2.5 mm square area) using an excitation wavelength of approximately 535 nm and measuring the emission intensity at a wavelength of 600 nm. Determined the mean and standard deviation of these measurements. […]

The subject of experiment [2] is rabbit saphenous vein. As to the kind of experiment: Rabbit saphenous vein contraction. Particulars: Oryctolagus cuniculus. The procedure: Bend the tips of two 30-gauge stainless steel hypodermic needles into an L-shape and slip them into the lumen of the polyethylene tubing. Gently push vein tissue from the cannula onto the needles. Separate the needles and attach the lower needle with thread to a stationary glass rod and the upper needle with thread to a force transducer (Statham UC-3). Mount the tissues in organ baths containing 10 mL of modified Krebs' solution. Maintain tissue bath solutions at 37° C. and […] […] Apply an initial optimum resting force of 4 grams to the vein tissue. Record isometric contractions as changes in grams of force on a Beckman Dynograph with Statham UC-3 transducers and microscale accessory attachments. […] Flush the bath, allow the tissue to re-equilibrate under a 4 gram force, add test compound and record the force of contraction. Add additional compound to achieve the next concentration in a range of compound concentrations to generate cumulative agonist concentration-response curves for each test compound. Tissues can be used to generate up to two agonist concentration-response curves. […] Two important parameters can be measured with this vasoconstriction assay, saphenous vein contraction (EC50) and maximal contraction as a percentage of the maximal KCl response (%max KCl).

On to `CNS(=O)(=O)Cc1ccc2[nH]cc(CCN(C)C)c2c1` [sumatriptan], for which the “extravasation inhibition ID50” value in experiment [1] worked out at 2.6e-08 mmol/kg. For the same compound, in experiment [2], the concentration for a half-maximal effect (EC50) (as a rule, the concentration at which the effect is half-maximal) was determined as 660 nM.
